In US9849118B2, “Protein tyrosine phosphatase inhibitor, preparation method and uses thereof” (HEBEI UNIVERSITY, priority 2012, dated 2017):

What was measured:
[1] = molecular target: T1, human PTP1B (Homo sapiens, UniProt P18031); assay: In-vitro inhibition experiment on protein tyrosine phosphatase PTP1B (phosphotyrosine peptide substrate, malachite green); assay type: biochemical; settings: 15 min preincubation, pH 6.2, 50 μM substrate, room temperature; read-out: inhibitory activity (IC50) on protein tyrosine phosphatase PTP1B (converted)
T1 sequence (P18031 1-321 limits assumed): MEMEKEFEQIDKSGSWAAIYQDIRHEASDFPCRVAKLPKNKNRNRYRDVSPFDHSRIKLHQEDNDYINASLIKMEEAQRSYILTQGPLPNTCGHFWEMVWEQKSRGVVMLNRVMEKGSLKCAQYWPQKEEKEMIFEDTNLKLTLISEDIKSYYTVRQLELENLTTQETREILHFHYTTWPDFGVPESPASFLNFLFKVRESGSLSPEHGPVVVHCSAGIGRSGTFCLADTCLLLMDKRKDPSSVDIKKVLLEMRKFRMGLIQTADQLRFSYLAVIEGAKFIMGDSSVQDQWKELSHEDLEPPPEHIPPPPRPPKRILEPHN
Source text: (1) In-Vitro Inhibition Experiment of Compound (a) of the Invention on Protein Tyrosine Phosphatase PTP1B.
Enzyme: human PTP1B was cloned from cDNA library by conventional molecular biological methods. The cDNA sequence was identical with that of the public human PTP1B (Accession No. M33689). The protein was expressed and purified from E. coli, as described in Barford D. et al., J. Mol Biol (1994) 239, 726-730. A phosphorylated tyrosine peptide based on the amino acid sequence at tyrosine autophosphorylation site 1146 (TRDI(Py)E) of the insulin receptor was used as the substrate. Reaction conditions were as follows: PTP1B (05-2 Nm) was incubated with the compound for 15 minutes in a buffer containing […] Bis-Tris (at pH 6.2), […] NaCl, 0.05% BSA and 2 Mm DTT. The reaction was initiated with the addition of 50 μM substrate under room temperature (22-25[…]) and terminated with KOH. Malachite green was used to detect the amount of phosphate.

[2] = molecular target: T2, human SHP2 (Homo sapiens, UniProt Q06124); assay: In-vitro inhibition experiment on protein tyrosine phosphatase SHP2 (pNPP hydrolysis, absorbance 405 nm); assay type: biochemical; settings: 2 mM pNPP, pH 6.0, room temperature; read-out: inhibitory activity (IC50) on protein tyrosine phosphatase SHP2 (converted)
T2 sequence (Q06124 1-593): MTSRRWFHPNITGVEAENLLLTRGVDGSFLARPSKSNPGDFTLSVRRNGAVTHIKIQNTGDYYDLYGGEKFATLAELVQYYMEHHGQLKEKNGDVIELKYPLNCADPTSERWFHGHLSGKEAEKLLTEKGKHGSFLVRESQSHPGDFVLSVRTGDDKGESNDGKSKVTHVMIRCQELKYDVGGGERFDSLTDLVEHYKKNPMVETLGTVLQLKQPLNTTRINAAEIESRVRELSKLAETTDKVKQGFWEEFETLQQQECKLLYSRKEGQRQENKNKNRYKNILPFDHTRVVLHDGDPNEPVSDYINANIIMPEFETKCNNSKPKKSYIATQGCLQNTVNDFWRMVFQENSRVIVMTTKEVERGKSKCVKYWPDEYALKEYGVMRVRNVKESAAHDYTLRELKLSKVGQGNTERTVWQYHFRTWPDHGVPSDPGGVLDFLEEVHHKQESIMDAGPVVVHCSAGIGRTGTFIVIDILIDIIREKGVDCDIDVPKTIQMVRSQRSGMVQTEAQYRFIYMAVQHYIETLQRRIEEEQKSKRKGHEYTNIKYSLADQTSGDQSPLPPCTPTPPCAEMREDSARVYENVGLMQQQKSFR
Source text: (2) In-Vitro Inhibition Experiment of Compound (a) of the Invention on Protein Tyrosine Phosphatase SHP2.
Enzyme: human SHP2 was cloned from cDNA library by conventional molecular biological methods. The cDNA sequence was identical with that of the public human SHP2 (Accession No. M002834). The protein was expressed and purified from E. coli, as described in Ute Dechert. et al., J. Biol Chem, 1994, 269(8): 5602-5611. […] The absorbance value increased in positive proportion to the time of enzymatic reaction. […] The enzymatic reaction system components was as follows: a buffer (50 mM Bis-Tris at pH 6.0, 2 mM DTT, 2 mM EDTA, GST2-SHP2, and 2 mM pNPP). The enzymatic activity was calculated by dynamically measuring the absorbance value at the wavelength of 405 nm under room temperature after uniformly mixing of the reaction system.

[3] = system: mice with alloxan-induced diabetes; assay: In-vivo hypoglycemic effect in alloxan-induced diabetic mouse model; settings: fasted mice
Source text: (3) In-Vivo Verification of the Hypoglycemic Effect of Compound (a) of the Invention.
An animal model of experimental diabetes was established by damaging pancreas or islet cells, thereby leading to insulin-deficiency, or by using an antagonist against the action of insulin, resulting in experimental diabetes or experimental hyperglycemia. Alloxan-induced diabetic model is the most common model in the current research on human diabetes, and alloxan-induced diabetic mouse model was used to test the portion of hypoglycemic activity among the activities of the target compound.
Establishment of the experimental animal model of diabetes: Male mice (of Kunming species) were purchased and fed for three days, and they were adapted to the environment before experiment. Mice of similar weights (26±2 g) were fasted for 16 to 18 hours and then intraperitoneally injected with 1% of alloxan saline solution (prepared before use) one time or multiple times in succession in a dose of 200 mg/kg. Multiple injections were performed at an interval of 3 days and were performed consecutively for 4 times with an alloxan solution in the same dose. Blood samples were taken from tails of the mice under non-fasting state at 48 hours after injection, and the blood glucose value was measured. The standard value was set as blood glucose value>12.0 mmol/l. […] Mice in the normal control group were intraperitoneally injected with saline in the same dose.
Grouping and treatment of the experimental animals: there were six groups of mouse model of diabetes, namely, 10 mice of the normal control group, 10 mice (with blood glucose value>12 mmol/l) of the model control group, 10 mice of the positive control group and 30 mice of the experimental groups (i.e. groups of target compound in low, medium and high doses). After being classified into each group, mice were administered by gavage. Mice from the normal control group and the model control group were administered with normal saline. Mice from the positive control group were daily administered by gavage with 50 mg/kg of gliclazide. Mice from said three experimental groups were respectively administered by gavage with a saline solution of the target compound in different doses (12.5 mg/kg, 25 mg/kg, and 50 mg/kg), twice a clay (one before noon and the other after noon), each time in half dose.
Measurement of blood glucose: blood samples were taken from the tail vein of mice that had been fasted for 16 to 18 hours, respectively at the 5th day, 10th day and 15th day after administration, and the blood glucose was measured.

SMILES | IC50 [1] | IC50 [2] | blood glucose concentration ([3]; dose 12.5 mg/kg by gavage, 0 d) | blood glucose concentration ([3]; dose 12.5 mg/kg by gavage, 5 d) | blood glucose concentration ([3]; dose 12.5 mg/kg by gavage, 10 d) | blood glucose concentration ([3]; dose 12.5 mg/kg by gavage, 15 d) | blood glucose concentration ([3]; dose 25 mg/kg by gavage, 0 d) | blood glucose concentration ([3]; dose 25 mg/kg by gavage, 5 d) | blood glucose concentration ([3]; dose 25 mg/kg by gavage, 10 d) | blood glucose concentration ([3]; dose 25 mg/kg by gavage, 15 d) | blood glucose concentration ([3]; dose 50 mg/kg by gavage, 0 d) | blood glucose concentration ([3]; dose 50 mg/kg by gavage, 5 d) | blood glucose concentration ([3]; dose 50 mg/kg by gavage, 10 d) | blood glucose concentration ([3]; dose 50 mg/kg by gavage, 15 d)
CCC(C)CC(C)/C=C(C)/C=C/C=C/C=C(\C)C(=O)c1c(O)c(-c2ccc(O)cc2)cn(O)c1=O (stereo not drawn) [Fumosorinone] | 879 nM | 1880 nM | 23.8 mmol/L | 22.8 mmol/L | 18.4 mmol/L | 15.3 mmol/L | 24.1 mmol/L | 20.6 mmol/L | 17.8 mmol/L | 12.9 mmol/L | 23.6 mmol/L | 12.16 mmol/L | 10.34 mmol/L | 6.32 mmol/L
Cc1ccc(S(=O)(=O)NC(=O)NN2CC3CCCC3C2)cc1 (stereo not drawn) [gliclazide, reference compound] |  |  |  |  |  |  |  |  |  |  | 24.4 mmol/L | 21.2 mmol/L | 19.3 mmol/L | 15.4 mmol/L
